Test results: patent US9884849B2, “Fluorinated benzofuranyl-pyrimidine derivatives containing a sulfoximine group” (Bayer Pharma Aktiengesellschaft, priority 2014, dated 2018)

Columns and labels:
CDK9/CycT1 = biological target: T1, CDK9/CycT1 (Homo sapiens, UniProt P50750); assay: CDK9/CycT1 kinase assay (Method 1a, TR-FRET); assay type: biochemical; details: 10 μM ATP; for Selectivity CDK9 over CDK2: IC50 (CDK2)/IC50 (CDK9): Methods 1a. and 2a.
T1 construct: Recombinant full-length His-tagged human CDK9 and CycT1; His; purchased Invitrogen PV4131; host or cells: insect cells
T1 sequence (P50750 whole entry): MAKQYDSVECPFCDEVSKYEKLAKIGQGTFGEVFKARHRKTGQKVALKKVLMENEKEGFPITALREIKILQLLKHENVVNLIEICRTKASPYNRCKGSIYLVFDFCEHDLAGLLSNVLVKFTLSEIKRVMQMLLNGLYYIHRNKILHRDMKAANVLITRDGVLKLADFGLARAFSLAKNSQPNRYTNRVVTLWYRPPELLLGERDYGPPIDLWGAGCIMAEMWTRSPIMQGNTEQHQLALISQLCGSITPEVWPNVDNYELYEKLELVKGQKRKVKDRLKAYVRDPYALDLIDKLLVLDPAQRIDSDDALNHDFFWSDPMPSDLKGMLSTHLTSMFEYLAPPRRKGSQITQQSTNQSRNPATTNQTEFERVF
T1 sequence (O60563 whole entry partner): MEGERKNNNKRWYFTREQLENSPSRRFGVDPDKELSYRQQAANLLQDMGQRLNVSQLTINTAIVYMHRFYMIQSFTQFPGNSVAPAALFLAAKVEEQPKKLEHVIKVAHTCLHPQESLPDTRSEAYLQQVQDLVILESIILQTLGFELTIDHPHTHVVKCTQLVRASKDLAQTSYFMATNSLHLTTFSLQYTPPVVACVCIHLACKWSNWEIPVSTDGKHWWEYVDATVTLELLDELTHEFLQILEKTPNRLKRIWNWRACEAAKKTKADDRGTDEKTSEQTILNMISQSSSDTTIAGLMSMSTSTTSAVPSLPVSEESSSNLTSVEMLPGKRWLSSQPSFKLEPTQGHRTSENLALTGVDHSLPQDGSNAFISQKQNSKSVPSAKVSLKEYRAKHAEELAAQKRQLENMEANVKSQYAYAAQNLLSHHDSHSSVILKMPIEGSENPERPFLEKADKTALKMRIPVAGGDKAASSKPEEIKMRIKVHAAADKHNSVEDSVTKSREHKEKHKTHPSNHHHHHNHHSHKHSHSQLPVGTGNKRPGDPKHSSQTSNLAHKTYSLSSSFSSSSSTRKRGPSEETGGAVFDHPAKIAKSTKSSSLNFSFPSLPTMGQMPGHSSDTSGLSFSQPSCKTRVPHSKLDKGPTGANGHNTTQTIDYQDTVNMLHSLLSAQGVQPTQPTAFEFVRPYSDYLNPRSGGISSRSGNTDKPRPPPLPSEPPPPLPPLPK
Text: 1a. CDK9/CycT1 Kinase Assay:
CDK9/CycT1-Inhibitory Activity of Compounds of the Present Invention was Quantified Employing the CDK9/CycT1 TR-FRET Assay as Described in the Following Paragraphs:
Recombinant full-length His-tagged human CDK9 and CycT1, expressed in insect cells and purified by Ni-NTA affinity chromatography, were purchased from Invitrogen (Cat. No PV4131). As substrate for the kinase reaction biotinylated peptide biotin-Ttds-YISPLKSPYKISEG (C-terminus in amid form) was used which can be purchased e.g. form the company JERINI Peptide Technologies (Berlin, Germany). For the assay 50 nl of a 100 fold concentrated solution of the test compound in DMSO was pipetted into a black low volume 384 well microtiter plate (Greiner Bio-One, Frickenhausen, Germany), 2 μl of a solution of CDK9/CycT1 in aqueous assay buffer [50 mM Tris/HCl pH 8.0, 10 mM MgCl2, 1.0 mM dithiothreitol, 0.1 mM sodium ortho-vanadate, 0.01% (v/v) Nonidet-P40 (Sigma)] were added and the mixture was incubated for 15 min at 22° C. to allow pre-binding of the test compounds to the enzyme before the start of the kinase reaction. Then the kinase reaction was started by the addition of 3 μl of a solution of adenosine-tri-phosphate (ATP, 16.7 μM=>final conc. in the 5 μl assay volume is 10 μM) and substrate (1.67 μM=>final conc. in the 5 μl assay volume is 1 μM) in assay buffer and the resulting mixture was incubated for a reaction time of 25 min at 22° C. The concentration of CDK9/CycT1 was adjusted depending of the activity of the enzyme lot and was chosen appropriate to have the assay in the linear range, typical concentrations were in the range of 1 μg/mL. The reaction was stopped by the addition of 5 μl of a solution of TR-FRET detection reagents (0.2 μM streptavidine-XL665 [Cisbio Bioassays, Codolet, France] and 1 nM anti-RB(pSer807/pSer811)-antibody from BD Pharmingen [#558389] and 1.2 nM LANCE EU-W1024 labeled anti-mouse IgG antibody [Perkin-Elmer, product no. AD0077]) in an aqueous EDTA-solution (100 mM EDTA, 0.2% (w/v) bovine serum albumin in 100 mM HEPES/NaOH pH 7.0).
(§1) The resulting mixture was incubated 1 h at 22° C. to allow the formation of complex between the phosphorylated biotinylated peptide and the detection reagents. Subsequently the amount of phosphorylated substrate was evaluated by measurement of the resonance energy transfer from the Eu-chelate to the streptavidine-XL. Therefore, the fluorescence emissions at 620 nm and 665 nm after excitation at 350 nm was measured in a HTRF reader, e.g. a Rubystar (BMG Labtechnologies, Offenburg, Germany) or a Viewlux (Perkin-Elmer). The ratio of the emissions at 665 nm and at […] was taken as the measure for the amount of phosphorylated substrate. The data were normalised (enzyme reaction without inhibitor=0% inhibition, all other assay components but no enzyme=100% inhibition).

CDK2/CycE = biological target: T2, CDK2/CycE (Homo sapiens, UniProt P24941); assay: CDK2/CycE kinase assay (Method 2a, TR-FRET); assay type: biochemical; details: 10 μM ATP
T2 construct: GST; purchased ProQinase GmbH (Freiburg, Germany); host or cells: insect cells (Sf9)
Text: 2a. CDK2/CycE kinase assay:
CDK2/CycE-Inhibitory Activity of Compounds of the Present Invention was Quantified Employing the CDK2/CycE TR-FRET Assay as Described in the Following Paragraphs:
Recombinant fusion proteins of GST and human CDK2 and of GST and human CycE, expressed in insect cells (Sf9) and purified by Glutathion-Sepharose affinity chromatography, were purchased from ProQinase GmbH (Freiburg, Germany). As substrate for the kinase reaction biotinylated peptide biotin-Ttds-YISPLKSPYKISEG (C-terminus in amid form) was used which can be purchased e.g. form the company JERINI Peptide Technologies (Berlin, Germany).
For the assay 50 nl of a 100 fold concentrated solution of the test compound in DMSO was pipetted into a black low volume 384 well microtiter plate (Greiner Bio-One, Frickenhausen, Germany), 2 yl of a solution of CDK2/CycE in aqueous assay buffer [50 mM Tris/HCl pH 8.0, 10 mM MgCl2, 1.0 mM dithiothreitol, 0.1 mM sodium ortho-vanadate, 0.01% (v/v) Nonidet-P40 (Sigma)] were added and the mixture was incubated for 15 min at 22° C. to allow pre-binding of the test compounds to the enzyme before the start of the kinase reaction. […] The concentration of CDK2/CycE was adjusted depending of the activity of the enzyme lot and was chosen appropriate to have the assay in the linear range, typical concentrations were in the range of 130 ng/mL. The reaction was stopped by the addition of 5 yl of a solution of TR-FRET detection reagents (0.2 μM streptavidine-XL665 [Cisbio Bioassays, Codolet, France] and 1 nM anti-RB(pSer807/pSer811)-antibody from BD Pharmingen [#558389] and 1.2 nM LANCE EU-W1024 labeled anti-mouse IgG antibody [Perkin-Elmer, product no. AD0077]) in an aqueous EDTA-solution (100 mM EDTA, 0.2% (w/v) bovine serum albumin in 100 mM HEPES/NaOH pH 7.0).
as §1, with “TR-FRET” for “HTRF”

Structure (SMILES)	IC50 (CDK9/CycT1) [nM]	Selectivity CDK9 over CDK2: IC50 (CDK2)/IC50 (CDK9) (CDK9/CycT1)	IC50 (CDK2/CycE) [nM]
CS(=N)(=O)Cc1cccc(Nc2ncc(F)c(-c3ccc(F)c4ccoc34)n2)c1 (single isomer, unassigned) [Example 5, 5-Fluoro-4-(4-fluoro-1-benzofuran-7-yl)-N-{3-[(S-methylsulfonimidoyl)-methyl]-phenyl}-pyrimidin-2-amine]	3.7	24	89
CS(=O)(Cc1cc(F)cc(Nc2ncc(F)c(-c3ccc(F)c4ccoc34)n2)c1)=NC#N (single isomer, unassigned) [Example 8, [(3-Fluoro-5-{[5-fluoro-4-(4-fluoro-1-benzofuran-7-yl)pyrimidin-2-yl]amino}benzyl)(methyl)-oxido-λ^6-sulfanylidene]cyanamide]	1.6	39	62
CS(=N)(=O)Cc1cc(F)cc(Nc2ncc(F)c(-c3ccc(F)c4ccoc34)n2)c1 (single isomer, unassigned) [Example 11, 5-Fluoro-4-(4-fluoro-1-benzofuran-7-yl)-N-{3-fluoro-5-[(S-methylsulfonimidoyl)-methyl]-phenyl}-pyrimidin-2-amine]	–	–	73
CS(=N)(=O)Cc1cc(Nc2ncc(F)c(-c3ccc(F)c4ccoc34)n2)cc(S(F)(F)(F)(F)F)c1 (racemic) [Example 18, (rac)-5-Fluoro-4-(4-fluoro-1-benzofuran-7-yl)-N-{3-[(S-methylsulfonimidoyl)methyl]-5-(pentafluoro-λ^6-sulfanyl)phenyl}pyrimidin-2-amine]	2.9	25	73
CS(=O)(Cc1cc(Nc2ncc(F)c(-c3ccc(F)c4ccoc34)n2)cc(S(F)(F)(F)(F)F)c1)=NC#N (racemic) [Example 17, (rac)-{[3-{[5-fluoro-4-(4-fluoro-1-benzofuran-7-yl)pyrimidin-2-yl]amino}-5-(pentafluoro-λ^6-sulfanyl)benzyl](methyl)oxido-λ^6-sulfanylidene}cyanamide]	8	33	257
CS(=O)(Cc1cccc(Nc2ncc(F)c(-c3ccc(F)c4ccoc34)n2)c1)=NC#N (racemic) [Example 1, (rac)-[(3-{[5-Fluoro-4-(4-fluoro-1-benzofuran-7-yl)pyrimidin-2-yl]amino}benzyl)(methyl)oxido-λ^6-sulfanylidene]cyanamide]	2.3	32	75
CS(=N)(=O)Cc1cc(F)cc(Nc2ncc(F)c(-c3ccc(F)c4ccoc34)n2)c1 (racemic) [Example 10, (rac)-5-Fluoro-4-(4-fluoro-1-benzofuran-7-yl)-N-{3-fluoro-5-[(S-methylsulfonimidoyl)-methyl]-phenyl}-pyrimidin-2-amine]	3.1	16	50
Cc1cc(CS(C)(=O)=NC#N)cc(Nc2ncc(F)c(-c3ccc(F)c4ccoc34)n2)c1 (racemic) [Example 13, (rac)-[(3-{[5-Fluoro-4-(4-fluoro-1-benzofuran-7-yl)pyrimidin-2-yl]amino}-5-methylbenzyl)-(methyl)oxido-λ^6-sulfanylidene]cyanamide]	–	–	41
Cc1cc(CS(C)(=O)=NC#N)cc(Nc2ncc(F)c(-c3ccc(F)c4ccoc34)n2)c1 (single isomer, unassigned) [Example 15, [(3-{[5-Fluoro-4-(4-fluoro-1-benzofuran-7-yl)pyrimidin-2-yl]amino}-5-methylbenzyl)-(methyl)oxido-λ^6-sulfanylidene]cyanamide]	2.4	40	95
Cc1cc(CS(C)(=N)=O)cc(Nc2ncc(F)c(-c3ccc(F)c4ccoc34)n2)c1 (racemic) [Example 16, (rac)-5-Fluoro-4-(4-fluoro-1-benzofuran-7-yl)-N-{3-methyl-5-[(S-methylsulfonimidoyl)-methyl]phenyl}pyrimidin-2-amine]	4.9	16	80
Cc1cc(CS(C)(=O)=NC#N)cc(Nc2ncc(F)c(-c3ccc(F)c4ccoc34)n2)c1 (single isomer, unassigned) [Example 14, [(3-{[5-Fluoro-4-(4-fluoro-1-benzofuran-7-yl)pyrimidin-2-yl]amino}-5-methylbenzyl)-(methyl)oxido-λ^6-sulfanylidene]cyanamide]	4.4	15	65
CS(=N)(=O)Cc1cccc(Nc2ncc(F)c(-c3ccc(F)c4ccoc34)n2)c1 (racemic) [Example 4, (rac)-5-Fluoro-4-(4-fluoro-1-benzofuran-7-yl)-N-{3-[(S-methylsulfonimidoyl)-methyl]phenyl}-pyrimidin-2-amine]	4.6	24	110
CS(=O)(Cc1cc(F)cc(Nc2ncc(F)c(-c3ccc(F)c4ccoc34)n2)c1)=NC#N (racemic) [Example 7, (rac)-[(3-Fluoro-5-{[5-fluoro-4-(4-fluoro-1-benzofuran-7-yl)pyrimidin-2-yl]amino}benzyl)(methyl)-oxido-λ^6-sulfanylidene]cyanamide]	4.1	14	56
CS(=O)(Cc1cc(F)cc(Nc2ncc(F)c(-c3ccc(F)c4ccoc34)n2)c1)=NC#N (single isomer, unassigned) [Example 9, [(3-Fluoro-5-{[5-fluoro-4-(4-fluoro-1-benzofuran-7-yl)pyrimidin-2-yl]amino}benzyl)(methyl)-oxido-λ^6-sulfanylidene]cyanamide]	2.1	42	88
CS(=O)(Cc1cccc(Nc2ncc(F)c(-c3ccc(F)c4ccoc34)n2)c1)=NC#N (single isomer, unassigned) [Example 3, [(3-{[5-Fluoro-4-(4-fluoro-1-benzofuran-7-yl)pyrimidin-2-yl]amino}benzyl)(methyl)oxido-λ^6-sulfanylidene]cyanamide]	3.3	14	45
